Measured values from patent US12195427B2, “MASP-2 inhibitors and methods of use” (priority 2018, dated 2025).
Counter-ions that a name gives are not always drawn.

Target: MASP-2 CCP2-SP (Homo sapiens (Human), UniProt O00187)
Assay: MASP-2 co-crystallization, X-ray crystallography and structure analysis (H-bonds, van der Waals contacts);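 as to Ligand-pharmacophore element distance, pharmacophore element C2: distance from averaged pharmacophore element to bound ligand; missing value means element absent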;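 as to Ligand-pharmacophore element distance, pharmacophore element C3: distance from averaged pharmacophore element to bound ligand; missing value means element absent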;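 as to Ligand-pharmacophore element distance, pharmacophore element C4: distance from averaged pharmacophore element to bound ligand; missing value means element absent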;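 as to Ligand-pharmacophore element distance, pharmacophore element C5: distance from averaged pharmacophore element to bound ligand; missing value means element absent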
Design: van der Waals contact distance, MASP-2 HIS 483 atom CD2 / van der Waals contact distance, MASP-2 HIS 483 atom NE2 / van der Waals contact distance, SER 654 C to compound atom / van der Waals contact distance, SER 654 O to compound atom / van der Waals contact distance, TRP 655 C to compound atom / van der Waals contact distance, MASP-2 GLY 528 atom CA / van der Waals contact distance TRP 655 atom CZ3 / van der Waals contact distance TRP 655 atom N / van der Waals contact distance TRP 655 atom CE3 / van der Waals contact distance GLY 656 atom C / van der Waals contact distance GLY 656 atom CA / van der Waals contact distance GLY 656 atom O / van der Waals contact distance, MASP-2 TYR 607 atom CD1 / van der Waals contact distance, MASP-2 PRO 606 atom O / d(C3,CA1) / d(CA1,N1)2 / d(H4,O1) / d(H4,O2) / d(O1,O2) / d(CA1,O2) / d(CA6,O1) / d(CA6,O2) / d(CA1,C5) / d(O2,H3) / d(N2,C2) / d(CA5,N2) / d(N2,C4) / d(N2,C6) / d(N2,CA3) / d(N2,O3) / d(O4,H2): unit not given beside the values
Conditions: for Ligand-pharmacophore element distance, pharmacophore element C2 / Ligand-pharmacophore element distance, pharmacophore element C3 / Ligand-pharmacophore element distance, pharmacophore element C4 / Ligand-pharmacophore element distance, pharmacophore element C5 / Ligand-pharmacophore element distance, pharmacophore element C6 / Ligand-pharmacophore element distance, pharmacophore element C7 / Ligand-pharmacophore element distance, pharmacophore element CA1 / Ligand-pharmacophore element distance, pharmacophore element CA2 / Ligand-pharmacophore element distance, pharmacophore element CA3 / Ligand-pharmacophore element distance, pharmacophore element CA4 / Ligand-pharmacophore element distance, pharmacophore element CA5 / Ligand-pharmacophore element distance, pharmacophore element CA6: Table A4-1; for Pharmacophore torsion angle a(O1, O2, N2, CA2): Table A7-2
Outline: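 Soaked crystals of recombinant CCP2-SP (E. coli) yield the structures, phased by molecular replacement on 1Q3X pieces. Hydrophobic or nonbonded contacts can also cover atom pairs that are potential hydrogen bonds.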

[1] = Table A5-1 pharmacophore: distance between elements, S2/S1 region
[2] = Table A5-2 pharmacophore distance, S3/S4 region
[3] = Table A7-1, between pharmacophore elements of the bound compound
[4] = between pharmacophore elements of the bound compound
[5] = Table A8-6, nearest protein atom in cell to the left

MASP-2 CCP2-SP, sequence (O00187 445-686): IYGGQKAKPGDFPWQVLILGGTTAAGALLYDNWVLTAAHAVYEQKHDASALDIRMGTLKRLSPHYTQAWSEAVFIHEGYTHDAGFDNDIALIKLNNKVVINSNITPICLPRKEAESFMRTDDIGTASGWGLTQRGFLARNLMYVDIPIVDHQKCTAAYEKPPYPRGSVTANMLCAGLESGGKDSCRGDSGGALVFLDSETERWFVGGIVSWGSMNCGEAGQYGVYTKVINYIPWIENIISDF
MASP-2 CCP2-SP, sequence (O00187 364-432 partner): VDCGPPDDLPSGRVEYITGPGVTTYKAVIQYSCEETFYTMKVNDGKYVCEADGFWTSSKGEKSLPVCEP

C[C@H](NC(=O)[C@H]1C[C@@H](c2ccccc2)CN1)C(=O)NCc1ccc2c(N)nccc2c1.Cl.Cl [1089_A]
Ligand-pharmacophore element distance, pharmacophore element C2: 0 | Ligand-pharmacophore element distance, pharmacophore element C3: 0 | Ligand-pharmacophore element distance, pharmacophore element C4: 0 | Ligand-pharmacophore element distance, pharmacophore element C5: 0 | Ligand-pharmacophore element distance, pharmacophore element C6: 0 | Ligand-pharmacophore element distance, pharmacophore element C7: 0 | Ligand-pharmacophore element distance, pharmacophore element CA1: 1 | Ligand-pharmacophore element distance, pharmacophore element CA2: 0.89 | Ligand-pharmacophore element distance, pharmacophore element CA3: 0 | Ligand-pharmacophore element distance, pharmacophore element CA4: 0 | Ligand-pharmacophore element distance, pharmacophore element CA5: 0 | Ligand-pharmacophore element distance, pharmacophore element CA6: 0 | d(CA1,O1) [1]: 5.75 | d(CA1,O2) [1]: 5.19 | d(H4,O1) [1]: 3.13 | d(H4,O2) [1]: 3.70 | d(O1,O2) [1]: 3.34 | d(N2,CA2) [2]: 5.10 | d(O2,H3) [2]: 5.94 | d(O2,N2) [2]: 2.66 | a(CA1, O1, O2) (Table A6-1 pharmacophore angle): 98.23 | a(O1, O2, H4) (Table A6-1 pharmacophore angle): 122.16 | a(O1, O2, H3) (Table A6-2 pharmacophore angle): 153.00 | a(O1, O2, N2) (Table A6-2 pharmacophore angle): 141.72 | a(O2, N2, CA2) (Table A6-2 pharmacophore angle): 154.37 | Pharmacophore torsion angle a(H4, O1, O2, H3) [3]: 88.95 | Pharmacophore torsion angle a(H4, O1, O2, N2) [3]: −175.67 | Pharmacophore torsion angle a(O1, H4, O2, CA1) [3]: −95.88 | Pharmacophore torsion angle a(O1, O2, N2, CA2) [4]: 137.41 | Pharmacophore protein distance to MET_658 (first MET_658 column) (Table A8-6, 6th residue column, nearest protein atom in cell to the left): 2.61 | Pharmacophore protein distance to MET_658 (second MET_658 column) (Table A8-6, 9th residue column, nearest protein atom in cell to the left): 3.31 | Pharmacophore protein distance to GLY_528 [5]: 3.59 | Pharmacophore protein distance to PHE_529 [5]: 2.81 | Pharmacophore protein distance to PRO_608 [5]: 3.90 | Pharmacophore protein distance to SER_611 [5]: 2.79 | Pharmacophore protein distance to TRP_655 (Table A8-6, pharmacophore elements C6, CA3, O3, H1, nearest protein atom in cell to the left): 3.57

CC(NC(=O)C1CC(Cc2ccccc2)CN1)C(=O)NCc1cnc2c(c1)c(Cl)cn2C.Cl.Cl (mixture of isomers) [1450_A]
Ligand-pharmacophore element distance, pharmacophore element C2: 0 | Ligand-pharmacophore element distance, pharmacophore element C3: 0 | Ligand-pharmacophore element distance, pharmacophore element C4: 0 | Ligand-pharmacophore element distance, pharmacophore element C5: 0.34 | Ligand-pharmacophore element distance, pharmacophore element C6: 0 | Ligand-pharmacophore element distance, pharmacophore element C7: 0.72 | Ligand-pharmacophore element distance, pharmacophore element CA1: 1.03 | Ligand-pharmacophore element distance, pharmacophore element CA2: 0.4 | Ligand-pharmacophore element distance, pharmacophore element CA3: 0 | Ligand-pharmacophore element distance, pharmacophore element CA4: 0 | Ligand-pharmacophore element distance, pharmacophore element CA5: 0 | Ligand-pharmacophore element distance, pharmacophore element CA6: 0 | d(CA1,C5) [1]: 3.55 | d(CA1,O1) [1]: 5.47 | d(CA1,O2) [1]: 4.73 | d(CA1,O4) [1]: 1.75 | d(H4,O1) [1]: 3.16 | d(H4,O2) [1]: 3.57 | d(O1,O2) [1]: 3.11 | d(N2,CA2) [2]: 5.88 | d(O2,H3) [2]: 2.31 | d(O2,N2) [2]: 2.81 | a(C5, CA1, O1) (Table A6-1 pharmacophore angle): 150.97 | a(CA1, O1, O2) (Table A6-1 pharmacophore angle): 94.14 | a(O1, CA1, C7) (Table A6-1 pharmacophore angle): 136.18 | a(O1, CA1, O4) (Table A6-1 pharmacophore angle): 68.80 | a(O1, O2, H4) (Table A6-1 pharmacophore angle): 125.38 | a(O1, O2, H3) (Table A6-2 pharmacophore angle): 127.40 | a(O1, O2, N2) (Table A6-2 pharmacophore angle): 139.62 | a(O2, N2, CA2) (Table A6-2 pharmacophore angle): 154.51 | Pharmacophore torsion angle a(O1, O2, N2, CA2) [4]: 120.74

Cc1nc(N)ccc1CNC(=O)[C@H](C)NC(=O)[C@H]1C[C@@H](c2ccccc2)CCN1 [compound 1253, (2R,4S)—N—((S)-1-(((6-Amino-2-methylpyridin-3-yl)methyl)amino)-1-oxopropan-2-yl)-4-phenylpiperidine-2-carboxamide Dihydrochloride]
H-bond distance to MASP-2 ASP 627 atom OD2 (Table A1 (H-Bonds), ASP 627 OD2): 3.33 | H-bond distance to MASP-2 GLY 656 atom N (Table A1 (H-Bonds), GLY 656 N): 3.23 | H-bond distance to MASP-2 GLY 656 atom O (Table A1 (H-Bonds), GLY 656 O): 2.83 | H-bond distance to MASP-2 SER 628 atom O (Table A1 (H-Bonds), SER 628 O): 3.12 | H-bond distance to MASP-2 SER 654 atom O (Table A1 (H-Bonds), SER 654 O): 2.99 | H-bond distance to MASP-2 SER 657 atom O (Table A1 (H-Bonds), SER 657 O): 2.85 | van der Waals contact distance, MASP-2 HIS 483 atom CD2 (Table A2-1): 3.74 | van der Waals contact distance, MASP-2 HIS 483 atom NE2 (Table A2-1): 3.66 | van der Waals contact distance, MASP-2 PHE 529 atom CE2 (Table A2-3): 3.77 | van der Waals contact distance, MASP-2 amino acid atom to compound atom (Table A2-5: TYR 607 (CE1, CE2, OH), PRO 608 (CD, CG), SER 611 (CA)): 3.73 | van der Waals contact distance, MASP-2 amino acid atom to compound atom (Table A2-7: SER 628 (CB, O, OG)): 3.58 | van der Waals contact distance, VAL 653 CG1 to compound atom (Table A2-11): 3.31 | van der Waals contact distance, TRP 655 CA to compound atom (Table A2-12): 3.41 | van der Waals contact distance TRP 655 atom CE3 (Table A2-13, MASP-2 TRP 655 CE3, compound atom in line below): 3.61 | van der Waals contact distance TRP 655 atom CZ3 (Table A2-13, MASP-2 TRP 655 CZ3): 3.71 | Ligand-pharmacophore element distance, pharmacophore element C2: 0.28 | Ligand-pharmacophore element distance, pharmacophore element C3: 0.07 | Ligand-pharmacophore element distance, pharmacophore element C4: 0 | Ligand-pharmacophore element distance, pharmacophore element C5: 0 | Ligand-pharmacophore element distance, pharmacophore element C6: 0 | Ligand-pharmacophore element distance, pharmacophore element C7: 0 | Ligand-pharmacophore element distance, pharmacophore element CA1: 0.59 | Ligand-pharmacophore element distance, pharmacophore element CA2: 0.23 | Ligand-pharmacophore element distance, pharmacophore element CA3: 0 | Ligand-pharmacophore element distance, pharmacophore element CA4: 0 | Ligand-pharmacophore element distance, pharmacophore element CA5: 0 | Ligand-pharmacophore element distance, pharmacophore element CA6: 0 | d(C3,CA1) [1]: 2.87 | d(CA1,N1)2 [1]: 1.37 | d(CA1,O1) [1]: 4.36 | d(CA1,O2) [1]: 3.83 | d(H4,O1) [1]: 4.38 | d(H4,O2) [1]: 3.69 | d(O1,O2) [1]: 3.39 | d(N2,C2) [2]: 1.46 | d(N2,CA2) [2]: 5.74 | d(O2,H3) [2]: 2.04 | d(O2,N2) [2]: 2.70 | a(C3, CA1, O1) (Table A6-1 pharmacophore angle): 149.95 | a(CA1, O1, O2) (Table A6-1 pharmacophore angle): 105.84 | a(O1, O2, H4) (Table A6-1 pharmacophore angle): 131.28 | a(N1, CA1, O1) b) (Table A6-1 pharmacophore angle, Methyl-amino-pyridine compounds): 174.19 | a(O1, O2, H3) (Table A6-2 pharmacophore angle): 134.57 | a(O1, O2, N2) (Table A6-2 pharmacophore angle): 140.99 | a(O2, N2, C2) (Table A6-2 pharmacophore angle): 130.77 | a(O2, N2, CA2) (Table A6-2 pharmacophore angle): 155.92 | Pharmacophore torsion angle a(C3, CA1, O1, H4) [3]: 26.20 | Pharmacophore torsion angle a(H4, O1, O2, H3) [3]: 115.64 | Pharmacophore torsion angle a(H4, O1, O2, N2) [3]: 140.24 | Pharmacophore torsion angle a(N1, CA1, O1, H4) [3]: 3.75 | Pharmacophore torsion angle a(O1, H4, O2, CA1) [3]: −82.09 | Pharmacophore torsion angle a(O1, O2, N2, C2) [3]: 120.69 | Pharmacophore torsion angle a(O1, O2, N2, CA2) [4]: 126.24
